Assay results: publication PMC12714254, “Exploiting peptide chirality and transport to dissect the complex mechanism of action of host peptides on bacteria” (PLOS Genetics, 2025)

Key:
[1] = system: in vitro coupled transcription-translation (GFP reporter); experiment: In vitro translation assay, GFP fluorescence; type: biochemical; conditions: same molarity, S3C Fig
S. meliloti cell cycle = system: S. meliloti cell cycle; set-up: method as in PMID 24501120; conditions: ref [12]; cited from earlier work

In the case of “LL37: cationic peptide LL37 (LLGDFFRKSKEKIGKEFKRIVQRIKDFLRNLVPRTES; Antibacterial peptide LL-37; UniProt P49913 134-170, looked up)”, the “translation inhibition by LL37 vs NCR247” value [1] is given as “very diminished phenotype as compared to the L-NCR247 and was lesser than the inhibition by D-NCR247” and the “cell cycle changes” value (S. meliloti cell cycle) is given as “cannot elicit cell cycle changes”.

For Polymyxin B, the “cell cycle changes” value (S. meliloti cell cycle) is listed as “cannot elicit cell cycle changes”.
